{"source": "patent US20160339187A1", "about": "“DEVICES AND METHODS FOR CONTROLLED DRUG DELIVERY OF WET AEROSOLS” (THE RESEARCH FOUNDATION FOR THE STATE UNIVERSITY OF NEW YORK, priority 2014, published 2016)", "key": {"[1]": {"details": "15 normal subjects, Aeroneb nebulizer with Idehaler; cited from earlier work"}, "[2]": {"experiment": "Gamma camera deposition in patients inhaling aerosol during tidal breathing from AeroTech II nebulizers", "type": "in vivo, human", "details": "group of patients, AeroTech II type nebulizers"}}, "data": [{"smiles": "NCC[C@H](O)C(=O)N[C@@H]1C[C@H](N)[C@@H](O[C@H]2O[C@H](CN)[C@@H](O)[C@H](O)[C@H]2O)[C@H](O)[C@H]1O[C@H]1O[C@H](CO)[C@@H](O)[C@H](N)[C@H]1O", "note": "[amikacin]", "values": [{"measurement": "oropharyngeal activity (average)", "setting": "[1]", "result": "29.4±7.4", "unit": "%"}]}, {"smiles": "N=C(N)c1ccc(OCCCCCOc2ccc(C(=N)N)cc2)cc1", "note": "[pentamidine]", "values": [{"measurement": "upper airway deposition as a percentage of total deposition", "setting": "[2]", "result": "≤ 5", "unit": "%"}]}]}
